Calls of active or inactive are those of the source.
Key:
[1] = biological target: Ras and Rab interactor 1/Tyrosine-protein kinase ABL1 (Homo sapiens, UniProt P00519+Q13671); assay type: functional;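 also: biochemical TR-FRET dose-response test measuring inhibition of binding between Rin1 and Abl proteins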
[2] = HepG2 cell cytotoxicity, dose response, cytotoxicity control, plate reader, cherry-pick, antagonist series (AID 743416); assay type: functional, cell-based
[3] = biological target: T1, Rac GTPase-activating protein 1 (Homo sapiens, UniProt Q9H0H5); assay: MgcRacGAP GTPase-activating activity inhibitors, confirmation, biochemical, ADP Hunter fluorescence, primary and confirmatory (AID 624330); assay type: functional
T1 sequence (Q9H0H5 whole entry): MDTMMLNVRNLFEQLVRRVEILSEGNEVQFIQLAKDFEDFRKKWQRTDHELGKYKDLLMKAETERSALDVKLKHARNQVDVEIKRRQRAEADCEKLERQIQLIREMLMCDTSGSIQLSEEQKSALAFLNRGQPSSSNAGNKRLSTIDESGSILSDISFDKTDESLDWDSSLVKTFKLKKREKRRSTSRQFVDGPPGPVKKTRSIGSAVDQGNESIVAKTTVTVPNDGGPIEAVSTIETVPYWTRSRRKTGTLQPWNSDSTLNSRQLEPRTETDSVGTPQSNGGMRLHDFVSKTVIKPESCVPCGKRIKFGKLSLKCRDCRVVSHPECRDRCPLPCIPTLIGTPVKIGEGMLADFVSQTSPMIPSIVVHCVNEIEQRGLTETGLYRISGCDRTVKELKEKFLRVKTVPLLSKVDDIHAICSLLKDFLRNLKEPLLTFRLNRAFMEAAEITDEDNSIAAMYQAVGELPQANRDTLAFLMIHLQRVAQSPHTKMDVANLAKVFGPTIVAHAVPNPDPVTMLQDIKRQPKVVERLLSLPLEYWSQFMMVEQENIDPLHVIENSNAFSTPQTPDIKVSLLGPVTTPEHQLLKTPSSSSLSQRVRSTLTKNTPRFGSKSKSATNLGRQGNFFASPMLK

[4] = HeLa cell cytotoxicity, dose response, cytotoxicity control for MgcRacGAP inhibitor project (AID 624300); assay type: functional
[5] = A549 cell cytotoxicity, dose response, cytotoxicity control, plate reader, cherry-pick, antagonist series (AID 743412); assay type: functional, cell-based
[6] = LGR2 antagonists, dose response, cell-based, HEK293, CRE-luciferase reporter, cherry pick, set 2 (AID 743343); assay type: functional;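 also: transfected cells were stimulated with diluted bursicon conditioned medium after compound addition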
[7] = biological target: T2, DNA repair and recombination protein RAD54-like (Homo sapiens, UniProt Q92698); assay: inhibitors of human RAD54 branch migration, confirmation, biochemical, fluorescence, cherry-picked samples, dose series (AID 651657); assay type: functional
T2 sequence (Q92698 whole entry): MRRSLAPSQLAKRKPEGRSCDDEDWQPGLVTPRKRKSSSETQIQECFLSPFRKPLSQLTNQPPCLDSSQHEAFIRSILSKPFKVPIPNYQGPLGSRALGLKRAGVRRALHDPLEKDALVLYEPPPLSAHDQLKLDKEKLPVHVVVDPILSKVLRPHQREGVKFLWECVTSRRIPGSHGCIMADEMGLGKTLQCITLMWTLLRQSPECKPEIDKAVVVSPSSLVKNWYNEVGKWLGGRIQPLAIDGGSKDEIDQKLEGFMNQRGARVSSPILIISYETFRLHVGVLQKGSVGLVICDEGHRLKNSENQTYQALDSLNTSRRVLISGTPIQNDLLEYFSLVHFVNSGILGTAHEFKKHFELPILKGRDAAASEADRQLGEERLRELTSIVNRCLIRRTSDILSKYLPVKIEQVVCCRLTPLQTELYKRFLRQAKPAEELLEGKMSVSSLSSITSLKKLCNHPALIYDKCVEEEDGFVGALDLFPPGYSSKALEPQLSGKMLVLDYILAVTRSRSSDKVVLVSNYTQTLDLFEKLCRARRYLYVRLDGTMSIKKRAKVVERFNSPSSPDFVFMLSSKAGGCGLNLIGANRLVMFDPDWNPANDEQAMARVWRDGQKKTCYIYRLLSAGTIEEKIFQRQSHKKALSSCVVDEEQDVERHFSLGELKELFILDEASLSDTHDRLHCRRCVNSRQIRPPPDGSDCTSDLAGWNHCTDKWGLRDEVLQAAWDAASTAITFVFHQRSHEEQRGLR

[8] = biological target: 72 kDa type IV collagenase (Homo sapiens, UniProt P08253); assay: Dose Response validation of uHTS RPN11 inhibitor hits using a MMP-2 Fluorescence assay.; assay type: functional
[9] = biological target: Dual specificity tyrosine-phosphorylation-regulated kinase 1A (Rattus norvegicus, UniProt Q63470); assay type: biochemical, Homo sapiens
[10] = biological target: Prothrombin (Bos taurus, UniProt P00735); assay: thrombin inhibition, dose response, biochemical, fluorescence polarization, uHTS hits (AID 602369); assay type: functional
[11] = biological target: 26S proteasome non-ATPase regulatory subunit 14 (Homo sapiens, UniProt O00487); assay: inhibition of proteasome subunit RPN11 – biochemical, fluorescence polarization, uHTS hits, confirmation (AID 602368); assay type: functional
[12] = test system: Streptococcus sp. 'group A'; assay: growth inhibition of control SK(-) GAS strain, dose response, counter-screen for streptokinase expression inhibitor project, luminescence, kanamycin, BacTiterGlo, confirmation (AID 1900); assay type: functional, organism-based
[13] = biological target: T3, Streptokinase A (Streptococcus pyogenes serotype M1, UniProt P10520); assay: S. pyogenes streptokinase expression inhibitors, potency, dose response, plasminogen activation absorbance, OD405 (AID 1914); assay type: functional, Streptococcus pyogenes M1 GAS;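 also: secreted streptokinase activity via plasminogen activation per viability signal from cell pellet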
T3 sequence (P10520 whole entry): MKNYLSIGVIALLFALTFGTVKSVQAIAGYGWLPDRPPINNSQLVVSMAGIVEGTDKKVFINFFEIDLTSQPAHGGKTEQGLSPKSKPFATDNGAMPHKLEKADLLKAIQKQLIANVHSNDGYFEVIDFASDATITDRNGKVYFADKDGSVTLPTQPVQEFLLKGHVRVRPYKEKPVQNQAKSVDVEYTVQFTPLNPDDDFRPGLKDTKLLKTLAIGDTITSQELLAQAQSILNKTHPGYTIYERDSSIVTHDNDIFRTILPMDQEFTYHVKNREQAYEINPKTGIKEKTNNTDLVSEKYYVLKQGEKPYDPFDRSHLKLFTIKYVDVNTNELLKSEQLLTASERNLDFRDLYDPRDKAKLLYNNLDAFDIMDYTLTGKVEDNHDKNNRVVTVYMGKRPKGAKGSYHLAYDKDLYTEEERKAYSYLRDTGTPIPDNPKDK

[14] = biological target: DNA (cytosine-5)-methyltransferase 1 (Homo sapiens, UniProt P26358); assay: DNMT1 methyltransferase inhibitors, confirmation, biochemical, fluorescent molecular beacon (AID 602386); assay type: functional
[15] = test system: Streptococcus; assay: Group A Streptococcus viability loss, dose response, counter-screen for streptokinase expression inhibitor project, luminescence, BacTiterGlo (AID 1915); assay type: functional, organism-based;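 also: potency for reduction of bacterial viability or growth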
[16] = cells; assay type: functional, cell-based
[17] = cells; assay type: functional, cell-based; remark: listed apart in the source
[18] = biological target: T4, Trace amine-associated receptor 1 (Homo sapiens, UniProt Q96RJ0); assay: Fluorescence-based cell-based high throughput dose response assay to identify agonists of the human trace amine associated receptor 1 (TAAR1).; assay type: functional
T4 sequence (Q96RJ0 whole entry): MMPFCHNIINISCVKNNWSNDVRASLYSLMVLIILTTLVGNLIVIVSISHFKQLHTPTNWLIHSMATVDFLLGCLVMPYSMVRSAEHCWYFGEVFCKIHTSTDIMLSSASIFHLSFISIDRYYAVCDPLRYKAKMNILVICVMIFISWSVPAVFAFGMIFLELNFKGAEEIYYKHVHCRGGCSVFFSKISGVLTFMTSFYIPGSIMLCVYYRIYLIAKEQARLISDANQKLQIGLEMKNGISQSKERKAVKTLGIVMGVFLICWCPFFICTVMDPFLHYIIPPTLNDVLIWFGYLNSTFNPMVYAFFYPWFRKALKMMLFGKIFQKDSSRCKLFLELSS

[19] = biological target: T4, Trace amine-associated receptor 1; assay: Counterscreen for agonists of the human trace amine associated receptor 1 (hTAAR1): Fluorescence-based cell-based high throughput dose response assay to identify hTAAR1 agonist that also desensitize TAAR1 receptor response.; assay type: functional
[20] = biological target: T5, DNA repair protein RAD52 homolog (Homo sapiens, UniProt P43351); assay type: functional, biochemical
T5 sequence (P43351 whole entry): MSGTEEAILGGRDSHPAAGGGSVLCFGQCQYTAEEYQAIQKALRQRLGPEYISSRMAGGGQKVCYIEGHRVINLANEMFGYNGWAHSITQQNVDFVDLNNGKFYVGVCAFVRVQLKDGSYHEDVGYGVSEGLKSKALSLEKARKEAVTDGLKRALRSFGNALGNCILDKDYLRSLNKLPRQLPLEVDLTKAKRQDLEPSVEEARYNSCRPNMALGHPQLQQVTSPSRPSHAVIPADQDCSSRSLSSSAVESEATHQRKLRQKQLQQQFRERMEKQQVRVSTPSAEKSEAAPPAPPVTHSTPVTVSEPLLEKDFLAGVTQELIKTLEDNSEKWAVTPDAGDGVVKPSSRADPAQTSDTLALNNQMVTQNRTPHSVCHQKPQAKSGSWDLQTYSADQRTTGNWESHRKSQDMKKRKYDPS

[21] = biological target: T6, Hepatocyte nuclear factor 4-alpha (Homo sapiens, UniProt P41235); assay type: functional, cell-based;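 also: biochemical luminescence-based dose-response counterscreen measuring inhibition of HNF4 dimerization, run alongside a screen for blockers of ABHD5–perilipin-5 interaction; split luciferase complementation of HNF4 fusion proteins in cell lysate measuring dimerization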
T6 sequence (P41235 whole entry): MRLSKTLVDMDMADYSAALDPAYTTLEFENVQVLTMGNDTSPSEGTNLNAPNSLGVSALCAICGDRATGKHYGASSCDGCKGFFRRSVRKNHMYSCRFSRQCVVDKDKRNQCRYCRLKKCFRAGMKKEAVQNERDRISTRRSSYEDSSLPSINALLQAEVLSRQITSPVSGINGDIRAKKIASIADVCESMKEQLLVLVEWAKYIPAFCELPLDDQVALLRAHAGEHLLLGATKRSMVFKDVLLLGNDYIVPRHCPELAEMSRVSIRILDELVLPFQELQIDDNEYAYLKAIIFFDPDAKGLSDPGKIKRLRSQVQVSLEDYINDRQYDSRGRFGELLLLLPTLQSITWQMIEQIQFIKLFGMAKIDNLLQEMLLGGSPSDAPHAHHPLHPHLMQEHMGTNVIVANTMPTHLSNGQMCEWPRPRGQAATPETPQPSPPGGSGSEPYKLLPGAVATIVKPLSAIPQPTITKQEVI

[22] = HEK293T cytotoxicity, dose response, cytotoxicity control for miR-122 modulator project, cell-based, inhibitor set, cherry-pick, set 2 (AID 720697); assay type: functional
[23] = biological target: T7, Heat shock factor protein 1 (Mus musculus, UniProt P38532); assay: inhibition of MG132-induced HSE-luciferase signal, confirmation, cell-based, NIH3T3, luminescence, dose retest (AID 2382); assay type: functional;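 also: NIH3T3 fibroblasts with HSF1-driven luciferase reporter stressed by proteasome inhibitor MG132; luminescence from HSF1-driven luciferase expression after 8 hours of MG132 stress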
T7 sequence (P38532 whole entry): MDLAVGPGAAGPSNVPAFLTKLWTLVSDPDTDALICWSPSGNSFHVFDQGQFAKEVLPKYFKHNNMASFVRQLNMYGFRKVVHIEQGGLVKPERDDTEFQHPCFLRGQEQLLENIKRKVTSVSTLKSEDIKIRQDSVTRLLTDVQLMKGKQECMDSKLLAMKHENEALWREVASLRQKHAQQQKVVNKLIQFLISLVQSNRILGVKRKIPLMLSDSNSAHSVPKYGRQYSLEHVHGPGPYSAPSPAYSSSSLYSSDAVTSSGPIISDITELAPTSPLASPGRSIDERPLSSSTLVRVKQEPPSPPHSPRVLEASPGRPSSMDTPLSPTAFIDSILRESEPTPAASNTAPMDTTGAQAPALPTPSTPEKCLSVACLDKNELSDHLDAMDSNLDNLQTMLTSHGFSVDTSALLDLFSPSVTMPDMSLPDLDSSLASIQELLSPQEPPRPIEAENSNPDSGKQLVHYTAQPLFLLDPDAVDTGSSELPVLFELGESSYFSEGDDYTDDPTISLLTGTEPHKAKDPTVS

Sequence of Ras and Rab interactor 1/Tyrosine-protein kinase ABL1 (P00519 whole entry): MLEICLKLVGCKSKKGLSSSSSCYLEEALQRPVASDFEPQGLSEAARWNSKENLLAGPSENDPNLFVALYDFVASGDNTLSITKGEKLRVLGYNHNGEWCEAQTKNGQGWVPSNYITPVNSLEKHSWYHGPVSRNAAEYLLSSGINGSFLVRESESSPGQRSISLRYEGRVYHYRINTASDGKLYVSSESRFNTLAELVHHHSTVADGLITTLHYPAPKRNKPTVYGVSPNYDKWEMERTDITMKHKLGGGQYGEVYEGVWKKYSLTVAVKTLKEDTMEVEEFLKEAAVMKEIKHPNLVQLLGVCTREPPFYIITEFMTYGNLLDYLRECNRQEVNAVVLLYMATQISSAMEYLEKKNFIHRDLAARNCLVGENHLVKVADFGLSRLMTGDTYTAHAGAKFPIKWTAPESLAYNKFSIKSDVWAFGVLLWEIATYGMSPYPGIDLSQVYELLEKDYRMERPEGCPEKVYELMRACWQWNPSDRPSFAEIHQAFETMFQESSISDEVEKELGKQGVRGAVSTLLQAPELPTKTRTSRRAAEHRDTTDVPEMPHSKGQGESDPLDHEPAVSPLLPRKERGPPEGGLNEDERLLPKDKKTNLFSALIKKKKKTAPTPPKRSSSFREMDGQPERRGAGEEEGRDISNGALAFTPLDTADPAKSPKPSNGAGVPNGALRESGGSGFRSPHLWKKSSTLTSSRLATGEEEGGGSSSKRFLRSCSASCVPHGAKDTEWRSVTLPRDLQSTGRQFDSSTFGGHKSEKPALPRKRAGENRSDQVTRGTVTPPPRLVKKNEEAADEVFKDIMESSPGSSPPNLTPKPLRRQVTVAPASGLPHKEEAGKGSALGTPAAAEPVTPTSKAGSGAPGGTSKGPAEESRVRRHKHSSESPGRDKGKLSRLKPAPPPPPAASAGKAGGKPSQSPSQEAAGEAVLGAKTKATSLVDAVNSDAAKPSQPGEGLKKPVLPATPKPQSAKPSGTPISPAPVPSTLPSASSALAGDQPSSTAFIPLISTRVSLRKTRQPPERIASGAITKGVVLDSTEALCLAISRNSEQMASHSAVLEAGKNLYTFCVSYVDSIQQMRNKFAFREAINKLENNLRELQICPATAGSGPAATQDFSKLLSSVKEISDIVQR
Sequence of Ras and Rab interactor 1/Tyrosine-protein kinase ABL1 (Q13671 whole entry): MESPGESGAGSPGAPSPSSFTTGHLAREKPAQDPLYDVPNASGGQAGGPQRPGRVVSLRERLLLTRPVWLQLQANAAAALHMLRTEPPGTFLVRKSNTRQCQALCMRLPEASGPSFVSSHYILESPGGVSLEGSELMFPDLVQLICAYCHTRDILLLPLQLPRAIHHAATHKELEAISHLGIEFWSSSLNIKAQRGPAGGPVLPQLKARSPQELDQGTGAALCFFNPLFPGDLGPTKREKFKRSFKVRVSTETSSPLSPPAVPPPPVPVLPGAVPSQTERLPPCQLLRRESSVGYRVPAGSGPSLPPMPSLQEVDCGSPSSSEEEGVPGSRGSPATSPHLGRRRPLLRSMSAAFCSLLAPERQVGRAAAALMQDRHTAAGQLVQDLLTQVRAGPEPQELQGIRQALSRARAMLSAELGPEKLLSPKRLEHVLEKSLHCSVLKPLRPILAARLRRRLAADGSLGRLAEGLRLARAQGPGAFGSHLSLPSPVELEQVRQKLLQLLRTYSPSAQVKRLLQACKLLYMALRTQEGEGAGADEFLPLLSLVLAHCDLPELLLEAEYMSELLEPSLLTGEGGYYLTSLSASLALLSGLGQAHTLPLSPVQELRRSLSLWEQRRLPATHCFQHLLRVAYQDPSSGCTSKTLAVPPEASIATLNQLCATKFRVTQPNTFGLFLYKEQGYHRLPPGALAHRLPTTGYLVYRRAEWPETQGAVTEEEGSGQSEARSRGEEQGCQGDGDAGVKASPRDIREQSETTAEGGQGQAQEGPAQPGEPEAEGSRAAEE
Sequence of 26S proteasome non-ATPase regulatory subunit 14 (O00487 whole entry): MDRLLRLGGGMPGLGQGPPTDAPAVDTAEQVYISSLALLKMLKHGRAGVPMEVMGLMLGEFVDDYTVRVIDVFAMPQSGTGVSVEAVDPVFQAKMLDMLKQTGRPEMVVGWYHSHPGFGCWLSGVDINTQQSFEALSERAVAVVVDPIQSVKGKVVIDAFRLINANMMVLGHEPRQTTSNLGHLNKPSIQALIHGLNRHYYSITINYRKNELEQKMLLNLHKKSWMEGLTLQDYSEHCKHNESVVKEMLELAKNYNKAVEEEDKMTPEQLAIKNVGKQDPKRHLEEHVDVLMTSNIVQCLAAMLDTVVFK
Sequence of DNA (cytosine-5)-methyltransferase 1 (P26358 whole entry): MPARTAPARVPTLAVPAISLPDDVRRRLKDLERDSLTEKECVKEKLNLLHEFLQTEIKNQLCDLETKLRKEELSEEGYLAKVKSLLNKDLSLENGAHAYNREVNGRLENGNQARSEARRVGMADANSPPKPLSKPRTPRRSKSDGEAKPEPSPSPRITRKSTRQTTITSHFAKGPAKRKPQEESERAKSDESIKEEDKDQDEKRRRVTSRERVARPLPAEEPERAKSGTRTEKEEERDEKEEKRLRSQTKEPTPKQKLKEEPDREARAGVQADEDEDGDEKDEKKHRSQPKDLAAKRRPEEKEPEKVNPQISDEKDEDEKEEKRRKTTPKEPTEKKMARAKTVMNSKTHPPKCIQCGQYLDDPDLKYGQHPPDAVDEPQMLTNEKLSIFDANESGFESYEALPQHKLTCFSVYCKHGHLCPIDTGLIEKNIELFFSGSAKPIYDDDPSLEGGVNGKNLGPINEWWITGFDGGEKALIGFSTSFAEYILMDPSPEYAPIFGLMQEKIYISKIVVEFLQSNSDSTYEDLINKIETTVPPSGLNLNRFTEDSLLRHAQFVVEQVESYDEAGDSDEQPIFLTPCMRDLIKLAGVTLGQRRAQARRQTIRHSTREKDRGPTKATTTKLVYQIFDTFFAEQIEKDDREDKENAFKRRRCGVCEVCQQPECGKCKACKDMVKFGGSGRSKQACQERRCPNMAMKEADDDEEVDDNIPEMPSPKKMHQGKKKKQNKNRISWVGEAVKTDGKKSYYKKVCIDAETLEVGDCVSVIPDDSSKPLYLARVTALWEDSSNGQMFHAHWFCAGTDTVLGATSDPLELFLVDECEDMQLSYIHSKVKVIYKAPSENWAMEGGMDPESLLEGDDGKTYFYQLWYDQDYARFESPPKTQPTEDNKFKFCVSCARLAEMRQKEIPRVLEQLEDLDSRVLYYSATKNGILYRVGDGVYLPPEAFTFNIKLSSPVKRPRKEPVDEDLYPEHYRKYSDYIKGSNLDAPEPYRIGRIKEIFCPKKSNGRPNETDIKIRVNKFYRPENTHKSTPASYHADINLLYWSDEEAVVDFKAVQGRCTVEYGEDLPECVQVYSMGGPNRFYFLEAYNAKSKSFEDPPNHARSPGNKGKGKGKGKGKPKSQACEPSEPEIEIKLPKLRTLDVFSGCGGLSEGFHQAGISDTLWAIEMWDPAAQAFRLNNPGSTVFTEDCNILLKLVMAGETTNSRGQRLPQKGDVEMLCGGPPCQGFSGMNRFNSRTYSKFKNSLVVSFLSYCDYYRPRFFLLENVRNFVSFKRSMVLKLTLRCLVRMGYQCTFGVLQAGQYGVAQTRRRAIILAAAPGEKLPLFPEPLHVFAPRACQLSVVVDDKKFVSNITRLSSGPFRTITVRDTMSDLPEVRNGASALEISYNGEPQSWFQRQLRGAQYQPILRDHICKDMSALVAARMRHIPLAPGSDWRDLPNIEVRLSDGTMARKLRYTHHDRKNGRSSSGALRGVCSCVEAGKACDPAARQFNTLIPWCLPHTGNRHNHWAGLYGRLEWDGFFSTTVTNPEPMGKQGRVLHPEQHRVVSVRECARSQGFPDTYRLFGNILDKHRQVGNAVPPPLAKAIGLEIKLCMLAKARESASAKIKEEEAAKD
Sequence of 72 kDa type IV collagenase (P08253 whole entry): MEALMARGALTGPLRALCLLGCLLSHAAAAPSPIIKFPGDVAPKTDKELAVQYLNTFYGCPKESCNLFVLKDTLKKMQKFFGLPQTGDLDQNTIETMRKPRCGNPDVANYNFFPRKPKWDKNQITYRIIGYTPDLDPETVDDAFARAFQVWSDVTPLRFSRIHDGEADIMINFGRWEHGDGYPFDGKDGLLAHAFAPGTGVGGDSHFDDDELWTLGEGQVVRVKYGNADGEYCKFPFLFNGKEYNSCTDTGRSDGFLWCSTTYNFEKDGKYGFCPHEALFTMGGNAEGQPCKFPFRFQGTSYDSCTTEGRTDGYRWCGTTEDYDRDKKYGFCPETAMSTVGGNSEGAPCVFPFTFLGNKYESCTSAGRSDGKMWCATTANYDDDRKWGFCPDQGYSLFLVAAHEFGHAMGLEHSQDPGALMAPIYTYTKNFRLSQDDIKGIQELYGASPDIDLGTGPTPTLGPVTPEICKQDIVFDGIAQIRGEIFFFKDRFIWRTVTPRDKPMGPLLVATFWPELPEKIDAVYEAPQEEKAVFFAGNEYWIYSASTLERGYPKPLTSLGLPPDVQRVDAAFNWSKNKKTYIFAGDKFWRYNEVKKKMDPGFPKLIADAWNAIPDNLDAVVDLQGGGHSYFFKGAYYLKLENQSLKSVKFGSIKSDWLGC

COC(=O)CCSCc1cn2cc(Cl)ccc2n1
IC50 [1]: 8.83 µM (active)

Oc1ccc(-c2csc(-c3cccnc3)n2)c(O)c1
AC50 [2]: 42.4 µM (active)
IC50 [3]: 30.9 µM (active)
CC50 [4]: 100 µM (active)
AC50 [5]: 23.6 µM (active)
AC50 [6]: 44.3 µM (active)

CCOc1ccccc1N(C(=O)c1snc(C(N)=O)c1N)C(C(=O)NCC1CCCO1)c1ccc2ncccc2c1 (stereo unspecified)
IC50 [1]: 25.1 µM (inactive)

O=C(Nc1cccc([N+](=O)[O-])c1)c1cc(S(=O)(=O)N2CCOCC2)cs1
AC50 [7]: 21.8 µM (active)

COc1cc(/C=C2\SC(N)=NC2=O)cc(Cl)c1O
IC50 [8]: > 100 µM (inactive)
IC50 [3]: 43.6 µM (active)
AC50 [9]: 18.6 µM (active)
IC50 [10]: 32.8 µM (active)
IC50 [11]: 26.8 µM (active)

COc1ccc(-c2nn(-c3ccccc3)cc2/C=C2/SC(=S)N(CCC(=O)O)C2=O)cc1
EC50 [12]: 2.14 µM (active)
EC50 [13]: > 150 µM (not active)
IC50 [14]: 5.06 µM (active)
EC50 [15]: 4.88 µM (active)

Cc1cc(C(=O)CSc2nnnn2-c2ccccc2)c(C)n1CCc1ccccc1
EC50 [16]: > 29.9 µM (inactive)
IC50 [17]: > 29.9 µM (inactive)
EC50 [18]: 3.4 µM (active)
IC50 [19]: 6.28 µM (active)

COCCN(CCOC)C(=O)CSc1ccc(S(=O)(=O)N2CCN(C)CC2)cn1
IC50 [1]: 20.5 µM (inactive)

CC(=O)Nc1cc(-c2ccc(N3CCN(C)CC3)cc2)cn2c(-c3cccc(C(C)=O)c3)cnc12
AC50 [7]: 14.8 µM (active)
AC50 [20]: 4.9 µM (active)

CC(C)(C)NC(=O)C(c1ccccc1)n1c(=O)c(-c2ccco2)nc2ccccc21 (stereo unspecified)
IC50 [21]: 1.4 µM (active)

COc1ccc(NC(=O)C(c2ccc(C#N)cc2)n2c(=O)c(-c3ccco3)nc3ccccc32)cc1 (stereo unspecified)
IC50 [21]: 13.5 µM (inactive)

COc1cccc(C(=O)N[C@H](C(=O)N2CCC[C@H]2C(=O)NCCc2ccccc2Cl)C(C)C)c1
EC50 [16]: > 29.9 µM (inactive)
IC50 [17]: > 29.9 µM (inactive)
EC50 [18]: 1.08 µM (active)
IC50 [19]: 2.22 µM (active)

CCCC(=O)Nc1ccc2c(c1)C(=O)N(C)[C@@H]1CC[C@H](CC(=O)Nc3cn(C)nc3C)O[C@@H]1CO2
AC50 [22]: 0.499 µM (active)

C/C(=N\CCc1ccccc1)C1=C(O)SCC1=O
EC50 [16]: > 29.9 µM (inactive)
IC50 [17]: > 29.9 µM (inactive)
EC50 [18]: 1.55 µM (active)
IC50 [19]: 9.57 µM (active)
EC50 [23]: > 195 µM (not active)
